How the values were obtained:
Type in all cases: in vivo, rat
TGFα mRNA = experiment: In situ hybridization of TGFα mRNA after nigral 6-OHDA lesion and/or striatal TGFα infusion; conditions: unilateral nigral 6-OHDA lesion
Excerpt: (§1) Adult male Sprague-Dawley rats weighing 250-300 grams were obtained from Simonsen (Gilroy, Calif.) and assigned to one of five treatment groups: (1) striatal TGFα infusion, nigral 6-OHDA lesion (hereafter, “lesion”); (2) TGFα infusion, no lesion; (3) artificial cerebrospinal (aCSF) infusion, lesion; (4) aCSF infusion, no lesion; (5) no infusion, no lesion. Four to eight animals were used per experimental group. The animals were monitored after each surgical procedure until fully recovered and maintained at all other times in a temperature and humidity controlled vivarium.
(§2) Rats were anesthetized with 8 mg xylazine and 100 mg ketamine per kilogram body weight. […] The success and extent of 6-OHDA lesions were monitored by tyrosine hydroxylase (TH) mRNA in situ hybridization in the midbrain. TH is the rate-limiting enzyme in the dopamine synthetic pathway and is a common marker for dopamine-producing neurons. One animal with an incomplete lesion (retaining significant numbers of nigral TH-IR cells) was excluded from the study and is not included in the total number of animals.
(§3) Osmotic minipumps (model 2002, Alzet, Inc.) were implanted four to five weeks post-lesion. […] The minipump itself was placed subcutaneously in the interscapular region.
(§4) At the end of the infusion period, animals were sacrificed by decapitation. Their brains were quickly removed, frozen in isopentane at −20° C., and stored at −70° C. Coronal cryostat sections were cut at 20 μm and thaw-adhered to Vectabond™ (Vector Labs, Inc.) coated slides in ordered anterior-to-posterior rows. The sections were postfixed with 4% paraformaldehyde in 0.1 M phosphate buffer (pH 7.4) for one hour, rinsed in phosphate buffer and air dried. Sections were stored with desiccant at −20° C. until processed.
TGFα mRNA probes were generated from a 550 nucleotide XbaI/BamHI cDNA fragment from the 5′ end of rat TGFα subcloned into pGEM 7Zf (Promega, Inc.). Antisense and sense probes were transcribed with SP6 and T7 polymerases, respectively. […]

EGF receptor mRNA = experiment: In situ hybridization of EGF receptor mRNA after nigral 6-OHDA lesion and/or striatal TGFα infusion
Excerpt: as §1, §2, §3, §4
TGFα mRNA probes were generated from a 550 nucleotide XbaI/BamHI cDNA fragment from the 5′ end of rat TGFα subcloned into pGEM 7Zf (Promega, Inc.). Antisense and sense probes were transcribed with SP6 and T7 polymerases, respectively. Rat EGF receptor mRNA probes were produced from a 718 base pair BamHI/SphI insert from the 5′ end of the gene in pGEM 7Zf. Probes for rat TH were created using the 1.2 kb BamHI/EcoRI fragment subcloned into pGEM 7Zf. Antisense subclones for EGF receptor and TH were transcribed with T7 polymerase. Sense subclones for EGF receptor and TH were transcribed with SP6 polymerase. All probes were radiolabeled by transcription in the presence of [^35S]UTP (NEN Research Products, Inc.).
In situ nucleic acid hybridization was performed according to the method described by Simmons et al. 1989, supra). Parallel sections from experimental and control animals were hybridized overnight at 65° C. with sense or antisense probes at a concentration of 10^7 cpm/ml.

[1] = test system: neural precursor cells of the subependymal zone; experiment: Periventricular cellular expansion and striatal ridge formation (thionin, silver staining, immunohistochemistry); conditions: midstriatal EGF infusion 0.5 μg/day, lesioned animals
Experimental: Adult male Sprague-Dawley rats weighing 250-300 grams were used throughout the study. Twenty-four animals received standard midstriatal infusions of rat TGFα (0.5 μg/day; Sigma Chemical Co.). Another 26 rats received either artificial cerebrospinal fluid (“aCSF”) or no infusion. A subset of animals in the standard TGFα infusion group and the control group received stereotaxic 6-OHDA injections into the substantia nigra 48 hours after the infusions were begun. Animals used in this portion of the study were classified into six groups according to their infusion-lesion combination, as follows: TGFα infusion, lesion (n=13); TGFα infusion, no lesion (n=11); aCSF infusion, lesion (n=12); aCSF infusion, no lesion (n=9); no infusion, lesion (n=1); no infusion, no lesion (n=4).
Additional animals received TGFα infusions into other regions of striatum, the lateral ventricle, cerebral cortex, or the septum. Four more animals (two per group) received midstriatal TGFα infusions at one-half or one-tenth the standard dose. Also, two animals received midstriatal infusions of epidermal growth factor (EGF) instead of TGFα. The EGF administered in these rats was at the standard 0.5 μg/day dose. All of the animals in these extra groups were lesioned. Rats in all of the experiments were typically perfused one to 16 days postlesion (3-18 days of infusion). […] Brain sections were prepared and stained using various immunocytochemical and histochemical techniques.
Rats were anesthetized with 8 mg xylazine and 100 mg ketamine/kg. Infusions of TGFα were provided up to 18 days by Alzet osmotic minipump (2002). The minipumps were filled to about 200 μl with either aCSF for control animals or 20 μg TGFα in 400 μl of aCSF (50 μg/ml) for experimental animals. Under sterile conditions, the infusion cannula was positioned to stereotaxic coordinates (+1.2 A/P; +2.7 M/L; −6.0 D/V) based on Bregma (Paxinos and Watson, The Rat Brain in Stereotaxic Coordinates, Academic Press, San Diego, 1986) and cemented to the top of the skull with dental cement. The infusate was delivered via cannula at approximately 0.5 μl/hour. Some additional control animals received infusions either into the lateral ventricle, the overlying cortex, or other areas.
Forty-eight hours after the minipump implant, rats were anesthetized as above. A chilled 4.8 mg/ml solution of 6-OHDA HCl was prepared immediately prior to injection. […] A 6-8 μl volume was injected at a rate of 1 μl/minute.
Animals were perfused with 500 ml of 4% paraformaldehyde in 0.1 M phosphate buffered saline (PBS; pH 7.4) one to 16 days postlesion and their brains placed into 20% sucrose. The next day, the brains were frozen in isopentane at −20° C. Forty-micron coronal sections were then cut on a freezing microtome into 2% paraformaldehyde in 0.1 M PBS. Continuous sections were taken through the striatum and substantia nigra-VTA. Representative sections were taken through the rest of the brain.
Microtomed brain sections for Nissl staining were mounted onto gelatin-coated slides and allowed to dry overnight. They were then dehydrated and rehydrated through ethanol baths, and placed in Thionin solution for approximately four minutes. The sections were dehydrated through the series of ethanol baths, cleared in successive Histoclear™ washes, and coverslipped. Section were viewed under light microscopy and photographed with Technical Pan Film™ (Kodak, Inc.) at ISO 100 (HC-110 processing for six minutes).
Degenerating fibers and cells of the ridge were labeled using a modification to the Nauta staining method, similar to Procedure I of Fink-Heimer (Giolli and Karamanlidis, In: Neuroanatomical Research Techniques, R. T. Robertson, Ed., pp. 211-240, Academic Press, New York, 1978).

Compound	contralateral TGFα mRNA hybridization (TGFα mRNA)	reduction of TGFα mRNA hybridization in the ipsilateral striatum (TGFα mRNA; several weeks post-lesion) [%]	EGF receptor hybridization in the ipsilateral SN-VTA (EGF receptor mRNA; 6-OHDA lesion, midbrain)	striatal and subependymal EGF receptor hybridization (EGF receptor mRNA; 6-OHDA lesioned animals compared to normal animals)	cellular expansion along the ventricle [1]	formation of the striatal ridge [1]
Cl.NCCc1cc(O)c(O)cc1O [6-OHDA, 6-hydroxydopamine HCl, reference compound]	no effect	25	abolished	unchanged		
EGF: epidermal growth factor, infused midstriatally instead of TGFα at 0.5 μg/day (NSDSECPLSHDGYCLHDGVCMYIEALDKYACNCVVGYIGERCQYRDLKWWELR; Epidermal growth factor; UniProt P01133 971-1023, looked up)					induced the cellular expansion along the ventricle	did not induce formation of the striatal ridge

— patent US20010007657A1, “Compositions and methods for manipulating glial progenitor cells and treating neurological deficits” (priority 1997, published 2001)
